A short description of series [1]: Hepatocyte stability (human). It counts as in vitro ADME. The conditions noted are these: 0.5×10^6 viable cells/mL. The method, then: 10 mM and 100 μM stock solutions of test compound(s) and a positive control were prepared in appropriate solvent (DMSO). In separate conical tubes, the 10 mM test compound and the positive control were diluted to 100 μM by combining 198 μL of 50% acetonitrile/50% water and 2 μL of 10 mM stock. The 100 μM test compound and the positive control were diluted to 30 μM by combining 140 μL of 50% acetonitrile/50% water and 60 μL of 100 μM stock solution. The 100 μM test compound and the positive control were diluted to 10 μM by combining 180 μL of 50% acetonitrile/50% water and 20 μL of 100 μM stock solution. The 100 μM test compound and the positive control were diluted to 3 μM by combining 194 μL of 50% acetonitrile/50% water and 6 μL of 100 μM stock solution.
Incubation medium (William's E Medium supplemented with GlutaMAX) and hepatocyte thawing medium was placed in a 37° C. water bath, and allowed to warm for at least 15 minutes prior to use. A vial of cryopreserved hepatocytes from storage was then removed, ensuring that the vial remains at cryogenic temperatures until thawing process ensues. Cells were thawed by placing the vial in a 37° C. water bath and gently shaking the vial for 2 minutes. After thawing was completed, the vial was sprayed with 70% ethanol and transferred to a biosafety cabinet.
A wide-bore pipette tip was used to transfer hepatocytes into 50 mL conical tube containing thawing medium. The 50 mL conical tube was placed into a centrifuge and spun at 100 g for 10 minutes. Upon completion of spin, the thawing medium was aspirated and the hepatocytes were resuspended in enough incubation medium to yield ˜1.5×10^6 cells/mL.
Using AOPI staining solution, cells were counted and the viable cell density was determined. Cells with poor viability (<75% viability) are not acceptable for use. […]
All calculations were carried out using Microsoft Excel. Peak areas were determined from extracted ion chromatograms. […]
The in vitro half-life (in vitro t1/2) was determined from the slope value: in vitro t1/2=0.693/k

Series [2] in a line: Mouse pharmacokinetic studies. The conditions noted are these: PO 5 mg/kg; for AUC(0-inf) / Cmax / Tmax / MRT inf / AUC(0-t) / half-life: male, C57BL/6J; for MRT inf: read-out: MRTInf—obs. It counts as in vivo, male C57BL/6J mice. Also on record: AUClast/D: unit not given here. The method, then:
(§1) The rat pharmacokinetics studies of exemplary compounds 03-3, 03-5, and 03-115 were conducted with male SD rats. These rats were typically about 6-8 weeks old, weighing 200 g to 300 g. Animals were fasted overnight and free access to food 4 hours after dosing. A required volume of vehicle was added to reach the target concentration of the test article and vehicle component to prepare for the dosing. The dosing vehicle was PEG400 or 30% PEG400 in saline for IV, or 0.5% methylcellulose in water for PO. For IV dosing, the animals were administered intravenously via tail vein. For PO dosing, the animals were administered via oral gavage. After dosing, blood sample was collected (˜0.2 mL per time point) through jugular vein or heart puncture. Blood of each sample was transferred into plastic micro centrifuge tubes containing EDTA-K2. Collection tubes with blood samples and anticoagulant were inverted several times for proper mixing of the tube contents and then placed on wet ice. The blood samples were centrifuged at 2000 g for 5 minutes at 4° C. to obtain plasma which was stored in a freezer at −75±15° C. prior to analysis. Samples were analyzed using LC-MS/MS. WinNonlin were used for pharmacokinetic calculations.
Mouse pharmacokinetics studies of exemplar compounds 03-3 and 03-5 were conducted substantially similarly to the rat pharmacokinetic studies, instead using male C57BL/6J mice. These mice were typically about 6-8 weeks old, weighing 20 g to 30 g. Animals were free access to food before dosing. Sample amount was ˜0.03 mL per time point and sample site was dorsal metatarsal or heart puncture.

The nature of series [3]: Mouse CNS exposure measurement (plasma, CSF, brain). It counts as in vivo, male C57BL/6J mice. Particulars: male, C57BL/6J; for concentration at 60 min: in vivo, sc, 1 mg/kg, SC 1 mg/kg; for concentration at 100 min: PO 5 mg/kg. The method, then:
as §1, with “These” for “The rat pharmacokinetics studies of exemplary compounds 03-3, 03-5, and 03-115 were conducted with male SD rats. These”
For CSF sampling, after anesthesia, the foramen magnum was exposed, and a syringe was used with a venoclysis needle to sample the CSF. The CSF samples were stored in polypropylene tubes, then stored in a freezer at −75±15° C. prior to analysis.
For brain sampling, the rats were fully exsanguinated by using a risen of carbon dioxide prior to brain collection. Brain samples were then collected at adopted time point, quick frozen and kept at −75±15° C. All brain samples were weighted and homogenated with PBS by brain weight (g) to PBS volume (mL) ratio 1:3 before analysis. The actual concentration is the detected value multiplied by the dilution factor.
These mice were typically about 6-8 weeks old, weighing 20 g to 30 g. Animals were free access to food before dosing. Sample amount was ˜0.03 mL per time point and sample site was dorsal metatarsal or heart puncture.

Like-named read-outs stand apart in the source and are kept apart here.

By AUC(0-inf) is commonly meant total exposure, with the tail of the curve extrapolated. One may read the Cmax as the peak of the concentration-time curve. As usually defined, the Tmax is the time from dosing to the highest level. Turning to `Cc1ncccc1[C@@H](O)CNC(C)(C)C` [Compound 03-115], the “Hepatocyte stability, Human” value in series [1] stood at 0.32 μL/min/10^6 cells. Moreover, in series [2], the F was determined as 112%. Further, in series [2] (in vivo), the AUC(0-inf) came out at 3020 ng·h/mL, the concentration peaked (Cmax) at 1750 ng/mL, the Tmax was found to be 0.5 h and the MRT inf came out at 1.8 h. The concentration at 60 min in series [3] (read-out: Concentration, Brain) came to 280 ng/g. For the same compound, the concentration at 60 min in series [3] (read-out: Concentration, CSF) was found to be 157 ng/mL. Besides, in series [3] (read-out: Concentration, Plasma), the concentration at 60 min is 270 ng/mL.

The AUC(0-t) is exposure summed from dosing to a finite time, without extrapolation to infinity. The term half-life denotes the time needed for the level to fall by half in the phase considered. As for `CC(C)(C)NC[C@H](O)c1cccc(C(F)(F)F)n1` [Compound 03-3], the “Hepatocyte stability, Human” value in series [1] came to 0.9 μL/min/10^6 cells. In series [2], the AUClast/D was determined as 774, the “AUC—% Extrap—obs” value was determined as 0.958% and the F is reported as 85.1%. For the same compound, in series [2] (plasma), the AUC(0-inf) was 3910 ng·h/mL, the area under the curve AUC(0-t) was determined as 3870 ng·h/mL, the highest concentration (Cmax) came out at 1020 ng/mL and the time of peak concentration (Tmax) stood at 0.25 h. In addition, in series [2] (plasma), the half-life was 3.78 h and the MRT inf amounted to 4.08 h. Also, the concentration at 100 min in series [3] (CSF, po, 5 mg/kg, read-out: Concentration, CSF) came to 302 ng/mL. Further, the concentration at 100 min in series [3] (brain, po, 5 mg/kg, read-out: Concentration, Brain) turned out to be 988 ng/g. Further, in series [3] (plasma, po, 5 mg/kg, read-out: Concentration, Plasma), the concentration at 100 min worked out at 557 ng/mL.

Consider `CC(C)(C)NC[C@H](O)c1cccc(C#N)n1` [Compound 03-5, (S)-6-(2-(tert-butylamino)-1-hydroxyethyl)picolinonitrile], for which, in series [1], the “Hepatocyte stability, Human” value is on record as 0.36-0.59 μL/min/10^6 cells. In series [2], the AUClast/D came to 1214, the “AUC—% Extrap—obs” value stood at 0.0845% and the F is 163%. Further, in series [2] (plasma), the AUC(0-inf) is 6080 ng·h/mL, the AUC(0-t) was 6070 ng·h/mL, the Cmax is 1940 ng/mL and the Tmax worked out at 0.917 h. In addition, in series [2] (plasma), the half-life is 2.51 h and the MRT inf came to 2.43 h. Besides, the concentration at 100 min in series [3] (CSF, read-out: Concentration, CSF) stood at 621 ng/mL. The concentration at 100 min in series [3] (brain, read-out: Concentration, Brain) was found to be 989 ng/g. Also, in series [3] (plasma, read-out: Concentration, Plasma), the concentration at 100 min was determined as 1340 ng/mL.
